Organism: Rattus norvegicus
Experiment: Open TG-GATES - Regimen: Daily Repeat
Assay type: toxicity, organism-based, Sprague-Dawley
Parameters: regimen Daily Repeat, gender Male, age 6 weeks
Conditions: in vivo, po, 1000 mg/kg, route gavage, dose level High; for APTT / Bas / Eos / Fbg / Hb / Ht / Lym / MCH / MCHC / MCV / Mono / Neu / PT / Plat / RBC / Ret / WBC: tissue Blood; for KIDNEY_L / KIDNEY_R / KIDNEY_TOTAL: tissue Kidney; for LIVER: tissue Liver; for A/G / ALP / ALT / AST / BUN / CRE / Ca / Cl / DBIL / GLC / IP / LDH / Na / PL / RALB / TBIL / TC / TG / TP / gamma-GTP: tissue Plasma

NC(N)=Nc1nc(CSCCC(N)=NS(N)(=O)=O)cs1 [FAMOTIDINE]
TERMINAL_BW (72 h, time 3 day): 226 g
APTT (72 h, time 3 day): 19.5 s
Bas (72 h, time 3 day): 0%
Eos (72 h, time 3 day): 1%
Fbg (72 h, time 3 day): 226.2 mg/dL
Hb (72 h, time 3 day): 13.2 g/dL
Ht (72 h, time 3 day): 36.9%
Lym (72 h, time 3 day): 79%
MCH (72 h, time 3 day): 21.9 pg
MCHC (72 h, time 3 day): 36%
MCV (72 h, time 3 day): 60.8 fL
Mono (72 h, time 3 day): 2.6%
Neu (72 h, time 3 day): 14.4%
PT (72 h, time 3 day): 11.9 s
Plat (72 h, time 3 day): 126.7 x10_4/uL
RBC (72 h, time 3 day): 607 x10_4/ul
Ret (72 h, time 3 day): 4.4%
WBC (72 h, time 3 day): 84.8 x10_2/uL
KIDNEY_L (72 h, time 3 day): 1 g
KIDNEY_R (72 h, time 3 day): 1 g
KIDNEY_TOTAL (72 h, time 3 day): 2 g
LIVER (72 h, time 3 day): 10.4 g
A/G (72 h, time 3 day): 1.5
ALP (72 h, time 3 day): 917.2 IU/L
ALT (72 h, time 3 day): 32.8 IU/L
AST (72 h, time 3 day): 60.4 IU/L
BUN (72 h, time 3 day): 15.4 mg/dL
CRE (72 h, time 3 day): 0.4 mg/dL
Ca (72 h, time 3 day): 10.8 mg/dL
Cl (72 h, time 3 day): 104.2 meq/L
DBIL (72 h, time 3 day): 0.088 mg/dL
GLC (72 h, time 3 day): 179.4 mg/dL
IP (72 h, time 3 day): 7.7 mg/dL
LDH (72 h, time 3 day): 185.8 IU/L
Na (72 h, time 3 day): 141.2 meq/L
PL (72 h, time 3 day): 137.8 mg/dL
RALB (72 h, time 3 day): 3.3 g/dL
TBIL (72 h, time 3 day): 0.1 mg/dL
TC (72 h, time 3 day): 77.6 mg/dL
TG (72 h, time 3 day): 79.6 mg/dL
TP (72 h, time 3 day): 5.5 g/dL
gamma-GTP (72 h, time 3 day): 1 IU/L
TERMINAL_BW ([…], time 7 day): 262.1 g
TERMINAL_BW ([…], time 14 day): 322.6 g
TERMINAL_BW ([…], time 28 day): 376.8 g
APTT ([…], time 7 day): 21.5 s
Bas ([…], time 7 day): 0%
Eos ([…], time 7 day): 1.2%
Fbg ([…], time 7 day): 223.4 mg/dL
Hb ([…], time 7 day): 13.6 g/dL
Ht ([…], time 7 day): 38.2%
Lym ([…], time 7 day): 75%
MCH ([…], time 7 day): 21.5 pg
MCHC ([…], time 7 day): 35.5%
MCV ([…], time 7 day): 60.3 fL
Mono ([…], time 7 day): 2.8%
Neu ([…], time 7 day): 19.6%
PT ([…], time 7 day): 12.1 s
Plat ([…], time 7 day): 122.6 x10_4/uL
RBC ([…], time 7 day): 634.4 x10_4/ul
Ret ([…], time 7 day): 5.5%
WBC ([…], time 7 day): 107.5 x10_2/uL
APTT ([…], time 14 day): 23.4 s
Bas ([…], time 14 day): 0%
Eos ([…], time 14 day): 0.8%
Fbg ([…], time 14 day): 228 mg/dL
Hb ([…], time 14 day): 13.9 g/dL
Ht ([…], time 14 day): 40.7%
Lym ([…], time 14 day): 76.8%
MCH ([…], time 14 day): 21.2 pg
MCHC ([…], time 14 day): 34.2%
MCV ([…], time 14 day): 62 fL
Mono ([…], time 14 day): 2.2%
Neu ([…], time 14 day): 18.6%
PT ([…], time 14 day): 12.5 s
Plat ([…], time 14 day): 117.7 x10_4/uL
RBC ([…], time 14 day): 656.2 x10_4/ul
Ret ([…], time 14 day): 4.8%
WBC ([…], time 14 day): 111.7 x10_2/uL
APTT ([…], time 28 day): 21.5 s
Bas ([…], time 28 day): 0%
Eos ([…], time 28 day): 1.2%
Fbg ([…], time 28 day): 222.2 mg/dL
Hb ([…], time 28 day): 15.7 g/dL
Ht ([…], time 28 day): 44.1%
Lym ([…], time 28 day): 84.8%
MCH ([…], time 28 day): 19.7 pg
MCHC ([…], time 28 day): 35.6%
MCV ([…], time 28 day): 55.4 fL
Mono ([…], time 28 day): 1.4%
Neu ([…], time 28 day): 11%
PT ([…], time 28 day): 12.5 s
Plat ([…], time 28 day): 100.2 x10_4/uL
RBC ([…], time 28 day): 796.6 x10_4/ul
Ret ([…], time 28 day): 1.9%
WBC ([…], time 28 day): 114.1 x10_2/uL
KIDNEY_L ([…], time 7 day): 1.2 g
KIDNEY_R ([…], time 7 day): 1.2 g
KIDNEY_TOTAL ([…], time 7 day): 2.4 g
KIDNEY_L ([…], time 14 day): 1.3 g
KIDNEY_R ([…], time 14 day): 1.3 g
KIDNEY_TOTAL ([…], time 14 day): 2.6 g
KIDNEY_L ([…], time 28 day): 1.3 g
KIDNEY_R ([…], time 28 day): 1.3 g
KIDNEY_TOTAL ([…], time 28 day): 2.7 g
LIVER ([…], time 7 day): 12.2 g
LIVER ([…], time 14 day): 14 g
LIVER ([…], time 28 day): 14.6 g
A/G ([…], time 7 day): 1.5
ALP ([…], time 7 day): 987.2 IU/L
ALT ([…], time 7 day): 36.6 IU/L
AST ([…], time 7 day): 69.8 IU/L
BUN ([…], time 7 day): 14.6 mg/dL
CRE ([…], time 7 day): 0.4 mg/dL
Ca ([…], time 7 day): 10.8 mg/dL
Cl ([…], time 7 day): 103.6 meq/L
DBIL ([…], time 7 day): 0.088 mg/dL
GLC ([…], time 7 day): 183.6 mg/dL
IP ([…], time 7 day): 7.3 mg/dL
LDH ([…], time 7 day): 184 IU/L
Na ([…], time 7 day): 140.8 meq/L
PL ([…], time 7 day): 147.6 mg/dL
RALB ([…], time 7 day): 3.4 g/dL
TBIL ([…], time 7 day): 0.1 mg/dL
TC ([…], time 7 day): 79 mg/dL
TG ([…], time 7 day): 69.4 mg/dL
TP ([…], time 7 day): 5.6 g/dL
gamma-GTP ([…], time 7 day): 1 IU/L
A/G ([…], time 14 day): 1.5
ALP ([…], time 14 day): 838 IU/L
ALT ([…], time 14 day): 36.6 IU/L
AST ([…], time 14 day): 64.6 IU/L
BUN ([…], time 14 day): 16.4 mg/dL
CRE ([…], time 14 day): 0.5 mg/dL
Ca ([…], time 14 day): 10.8 mg/dL
Cl ([…], time 14 day): 103.4 meq/L
DBIL ([…], time 14 day): 0.078 mg/dL
GLC ([…], time 14 day): 196.6 mg/dL
IP ([…], time 14 day): 7.4 mg/dL
LDH ([…], time 14 day): 162 IU/L
Na ([…], time 14 day): 140.6 meq/L
PL ([…], time 14 day): 134.8 mg/dL
RALB ([…], time 14 day): 3.6 g/dL
TBIL ([…], time 14 day): 0.1 mg/dL
TC ([…], time 14 day): 72.4 mg/dL
TG ([…], time 14 day): 66.8 mg/dL
TP ([…], time 14 day): 5.9 g/dL
gamma-GTP ([…], time 14 day): 1.6 IU/L
A/G ([…], time 28 day): 1.3
ALP ([…], time 28 day): 722.6 IU/L
ALT ([…], time 28 day): 36.2 IU/L
AST ([…], time 28 day): 62.4 IU/L
BUN ([…], time 28 day): 17.4 mg/dL
CRE ([…], time 28 day): 0.6 mg/dL
Ca ([…], time 28 day): 10.3 mg/dL
Cl ([…], time 28 day): 102.8 meq/L
DBIL ([…], time 28 day): 0.076 mg/dL
GLC ([…], time 28 day): 220 mg/dL
IP ([…], time 28 day): 7 mg/dL
LDH ([…], time 28 day): 132.6 IU/L
Na ([…], time 28 day): 141.6 meq/L
PL ([…], time 28 day): 121.2 mg/dL
RALB ([…], time 28 day): 3.4 g/dL
TBIL ([…], time 28 day): 0.1 mg/dL
TC ([…], time 28 day): 62.4 mg/dL
TG ([…], time 28 day): 72.2 mg/dL
TP ([…], time 28 day): 6 g/dL
gamma-GTP ([…], time 28 day): 1.4 IU/L

— ChEMBL document CHEMBL3885861, “Open TG-GATES”
